Measured values as given in patent US7053043B1, “Pharmaceutical compositions comprising synthetic peptide copolymers and methods for preventing and treating GVHD and HVGD” (Yeda Research and Development Co.Ltd., priority 1999, dated 2006).

Columns and labels:
[1] = test system: B10.D2 responder spleen cells with irradiated C57BL/6 spleen stimulator cells; experiment: MLR primary assay, Table 1; format: cell-based, mice; settings: [3H]-thymidine after 96 hours
Protocol: The effect of Copolymer 1 (Batch I) on mixed lymphocyte cultures across major histocompatibility barriers was tested. T cell proliferation was assessed in six different MHC-disparate strain combinations. […] To exclude the possibility that higher concentrations of Copolymer 1 (50–100 μg/well) might be toxic to the responder cells, responder cells from background well and from wells incubated with 25–100 μg/well of Copolymer 1 in the presence of stimulator cells for 72 hours in a primary assay, were rechallenged in a subsequent secondary assay with IL-2 (5,000 U/well).

[2] = test system: proliferation of B10.PL (H-2u) responder cells to BALB/c stimulator cells; experiment: Mixed lymphocyte reaction (MLR) across major histocompatibility barriers, B10.PL vs BALB/c; format: cell-based, mice; settings: 20 μg/well, Cop 1 Batch I, 1:1 ratio of responder to stimulator cells
Protocol: Responder cells for MLR reactions across major histocompatibility barriers were harvested from spleen of non-immunized mice while responder cells for MLR across minor histocompatibility barriers were harvested from mice which were preimmunized with irradiated (30 Gy) 50×10^6 stimulator spleen cells 21 days before. Responder cells (5×10^5 spleen cells per well) were tested for their proliferative response by plating with different amounts (2.5 to 10×10^5) of irradiated stimulator cells, in presence or absence of various peptide inhibitors (10–100 μg per well). Cultures were set up in 200 μl media containing 10% FCS in flat-bottom microtiter plates. After 4 days of incubation, cultures were pulsed with 1 μCi of [^3H]thymidine for an additional 16 hours. Results are represented as mean counts per minute (cpm) thymidine incorporation from triplicate cultures.
To investigate the feasibility of inhibition of MLR by Copolymer 1, an MLR system was developed in which Copolymer 1 was tested for its ability to inhibit the proliferation of B10.PL (H-2^u) responder cells to stimulator cells of either the same (PL/J) or different (BALB/c) H-2 haplotype. For comparison, the inhibitory MBP Ac 1-11[4A], MBP 35-47, a combination of Ac 1-1[4A]+MBP 35-47, MBP 89-101 and KM-core peptides, described in Schlegel et al. (1994), were used in the MLR experiments.
The inhibition obtained by Copolymer 1 was similar (in response to minor histocompatibility antigen) or even higher (in response to major histocompatibility antigen) than the inhibition obtained with the combination of the two synthetic peptides Ac 1-11[4A] and MBP 35-47, which specifically bind to the class II molecules I-A^u and the I-E^u, respectively. The molar efficiency of Copolymer 1 of M.W. 6000 is even higher since the molecular weight of the synthetic peptides is 4–5 fold lower.

[3] = test system: B10.D2 responder T cells with APC presenting BALB/c mH antigens; experiment: Proliferative responses to minor H antigens in vitro, Cop 1 present in the assay; format: cell-based, mice; settings: for cpm (Cop 1 Assay Concentration): Resp. + APC
Protocol: B10.D2 mice were injected ip. with irradiated (20 Gy) BALB/c spleen cells 72 hours prior to the assay. B10.D2 spleen cells were harvested, depleted of red blood cells (RBC) and used as irradiated (10 Gy) antigen-presenting cells (APC) presenting BALB/c mH antigens. For the primary assay, APC were plated at 2.5×10^5 cells per well in 96-well round-bottom plates and incubated with 2.5×10^5 nylon-wool-enriched responder T cells (>88% CD3^+ by FACS […]). After 96 hours of incubation, cells were pulsed with 1 μCi [^3H]-thymidine for an additional 16 hours before harvesting. In the secondary assay, irradiated APC were plated at 2.5×10^5 cells/well in 96-well round-bottom plates, preincubated for 24 hours at 37° C. with increasing concentrations of GLAT (2.5–80 μg/well) or with medium alone, and thereafter washed three times before the addition of 2.5×10^5 nylon-wool-enriched responder T cells from naive B10.D2 mice. Culture medium was RPMI 1640, supplemented with 10% pre-screened fetal calf serum, 2 mM glutamine, 50 μM 2-mercaptoethanol, 100 U/ml penicillin, and 100 μg/ml streptomycin.
B10.D2 mice were injected ip with irradiated (20 Gy) BALB/c spleen cells 72 hours prior to the assay. B10.D2 spleen cells were harvested, depleted of RBC and used as irradiated (10 Gy) APC presenting BALB/c mH antigens. APC were plated at 2.5×10^5 cells/well in 96-well round-bottom plates and incubated with 2.5×10^5 nylon-wool-enriched responder T cells (>88% CD3^+ by FACS analysis) from naive B10.D2 mice in the presence or absence of increasing concentrations of Copolymer 1 (Batch I) (2.5–80 μg/well). After 96 hours of incubation, cells were pulsed with 1 μCi [^3H]-thymidine for an additional 16 hours before harvesting. […] Maximum inhibition was 100% at a concentration of 80 μg/well.

[4] = test system: function of transplanted thyroids; experiment: Thyroid graft assay for HVGD (125I absorption of thyroid transplanted in kidney capsule); format: in vivo, mice
Protocol: In this transplantation model for HVGD, thyroid glands from donor mice were transplanted in the kidney's capsules of recipient mice. One week later the transplanted mice were injected with ^125I, and the radioactivity of each kidney (the recipient or the untransplanted kidney) was measured after 20 hours. Δcpm was calculated by subtracting the ^125I absorbance of the untransplanted kidneys from the ^125I absorbance of the recipient kidneys in the same treatment. The mean function index (MFI) for treatment was calculated by dividing the mean Δcpm for the tested (Copolymer 1) treatment by the mean Δcpm for the PBS treatment. P values were obtained by the t test. This assay indicates objectively and quantitatively not only the graft survival, but also the function (iodine absorbance) of the transplanted thyroid tissue (Isakov et al., 1979).
The transplanted mice were treated daily with Copolymer 1 600 μg/day (300 μg ip+300 μg sc) in PBS solution, starting 7 days before transplantation. The first Cop 1 treatment on day −7 was injected sc in ICFA as a depot dose. Control mice were treated daily with PBS alone and PBS with ICFA on day −7 before transplantation.
To test the effect of Copolymer 1 treatment on the function of transplanted thyroids in the B10.D2→BALB/c model, thyroid glands from donors B10.D2 were transplanted in the kidney's capsules of BALB/c mice. After one week the transplanted mice were injected with ^125I, and the radioactivity of each kidney was measured 20 hours later. cpm was calculated by subtracting the ^125I absorbance of the untransplanted kidneys from the ^125I absorbance of the recipient kidneys in the same treatment. The mean function index (MFI) for each treatment was calculated by dividing the mean ^125I absorbance of (transplanted kidney-untransplanted kidney) in the tested treatment by the mean ^125I absorbance of (transplanted kidney-untransplanted kidney) in the PBS treatment, as follows: […]

[5] = B10.D2 → BALB, H-2d, another experiment (N 5), Cop 1 600 μg/day
[6] = B10.D2 → BALB/c, H-2d, Cop 1 600 μg, N 10
[7] = B10PL → PL/J, H-2d, Cop 1 600 μg/day
[8] = C57BL → BALB, H-2b → H-2d, Cop 1 600 μg/day
[9] = C57BL → C3H, H-2b, Cop 1 600 μg/day

For Glatiramer acetate [Cop 1], the “Primary Assay cpm” value ([1]; Cop 1 25 μg/well (Batch I)) was 15,953 cpm, the “Primary Assay cpm” value ([1]; Cop 1 50 μg/well (Batch I)) was 3,663 cpm and the “Primary Assay cpm” value ([1]; Cop 1 100 μg/well (Batch I)) was 283 cpm. For the same substance, the “inhibition of MLR” value [2] was 77%, the “Maximum inhibition of proliferative responses to mH antigens” value ([3]; 80 μg/well) was 100% and the “cpm (Cop 1 Assay Concentration)” value ([3]; Cop 1 1.5 μg) was 124,904 cpm. The “cpm (Cop 1 Assay Concentration)” value ([3]; Cop 1 5 μg) was 126,405 cpm, the “cpm (Cop 1 Assay Concentration)” value ([3]; Cop 1 10 μg) was 119,866 cpm and the “cpm (Cop 1 Assay Concentration)” value ([3]; Cop 1 20 μg) was 75,840 cpm. For the same substance, the “cpm (Cop 1 Assay Concentration)” value ([3]; Cop 1 40 μg) was 23,591 cpm, the “cpm (Cop 1 Assay Concentration)” value ([3]; Cop 1 80 μg) was 361 cpm and the “Mean 125I Absorption, Transplanted Kidney (cpm)” value [4, 5] was 1035 cpm. For the same substance, the “Mean 125I Absorption, Untransplanted Kidney (cpm)” value [4, 5] was 137 cpm, the “cpm (transplanted minus untransplanted kidney)” value [4, 5] was 898 cpm and the “Mean 125I Absorption, Transplanted Kidney (cpm)” value [4, 6] was 2901 cpm. For the same substance, the “Mean 125I Absorption, Untransplanted Kidney (cpm)” value [4, 6] was 450 cpm, the “cpm (transplanted minus untransplanted kidney)” value [4, 6] was 2451 cpm and the “Mean 125I Absorption, Transplanted Kidney (cpm)” value [4, 7] was 2009 cpm. For the same substance, the “Mean 125I Absorption, Untransplanted Kidney (cpm)” value [4, 7] was 332 cpm, the “cpm (transplanted minus untransplanted kidney)” value [4, 7] was 1677 cpm and the “Mean 125I Absorption, Transplanted Kidney (cpm)” value [4, 8] was 10759 cpm. The “Mean 125I Absorption, Untransplanted Kidney (cpm)” value [4, 8] was 924 cpm, the “cpm (transplanted minus untransplanted kidney)” value [4, 8] was 9835 cpm and the “Mean 125I Absorption, Transplanted Kidney (cpm)” value [4, 9] was 1643 cpm. The “Mean 125I Absorption, Untransplanted Kidney (cpm)” value [4, 9] was 281 cpm, the “cpm (transplanted minus untransplanted kidney)” value [4, 9] was 1362 cpm and the “MFI (mean function index)” value ([4]; folds over PBS treatment, B10.D2 → BALB, H-2d, another experiment (N 5), Cop 1 600 μg/day) was 5.2. The “MFI (mean function index)” value ([4]; folds over PBS treatment, B10.D2 → BALB/c, H-2d, Cop 1 600 μg, N 10) was 3.2, the “MFI (mean function index)” value ([4]; relative to PBS treatment, B10PL → PL/J, H-2d, Cop 1 600 μg/day) was 2.5 and the “MFI (mean function index)” value ([4]; relative to PBS treatment, C57BL → BALB, H-2b → H-2d, Cop 1 600 μg/day) was 3.0. For the same substance, the “MFI (mean function index)” value ([4]; relative to PBS treatment, C57BL → C3H, H-2b, Cop 1 600 μg/day) was 2.3.
